The subject of one assay is control melanocytes. Format: cell-based, human. As to conditions: 10 days exposure; only at the highest concentration step 5.0 μg/ml.
The test system of assay [1] is Parkinson's melanocytes and normal adult control melanocytes. Briefly: short time exposure (24 h), DNA synthesis by 3HdT incorporation and scintillation counts. As to conditions: 24 h exposure; 0.5 μg/ml to 5.0 μg/ml. In kind it is cell-based, human.

Regarding `CCCCC[C@H](O)/C=C/[C@H]1C=CC(=O)[C@@H]1C/C=C\CCCC(=O)O` [PGA2], the “impact on the growth of the control melanocytes” value in the assay on control melanocytes was “negative impact on the growth”. Also, the “difference in vulnerability between Parkinson's melanocytes and normal adult control melanocytes (DNA synthesis, 3HdT incorporation)” value (from here on “difference”) in assay [1] was “no significant different in vulnerability”.
`CCCCC[C@H](O)/C=C/[C@H]1[C@H](O)CC(=O)[C@@H]1C/C=C\CCCC(=O)O` [PGE2]: in assay [1], the “difference” value is given as “no significant different in vulnerability”.
On to `CCCCC[C@H](O)/C=C/[C@@H]1[C@@H](C/C=C\CCCC(=O)O)[C@@H](O)C[C@H]1O` [PGF2a], for which, in assay [1], the “difference” value is “no significant different in vulnerability”.
For the compound `CCCCC[C@H](O)/C=C/[C@H]1C(=O)C=C[C@@H]1C/C=C\CCCC(=O)O` [PGJ2], the “impact on the growth of the control melanocytes” value in the assay on control melanocytes is “negative impact on the growth”. Further, in assay [1], the “difference” value is “no significant different in vulnerability”.

Values taken from patent US20070071727A1, “Melanocytes in therapy of neurodegenerative diseases” (priority 2003, published 2007).
